Reference: patent US20210023065A1, “AMPHIPHILIC THIOL COMPOUNDS AND USES THEREOF” (THE REGENTS OF THE UNIVERSITY OF CALIFORNIA, priority 2018, published 2021)

Tests used:
[1] = molecular target: T1, EGFP-HRas (Homo sapiens, UniProt P01112); experiment: Live-cell imaging of EGFP-HRas localization in HeLa cells; assay type: cell-based
T1 construct: host or cells: HeLa
Procedure: Imaging was performed on an Axio Observer Z1 inverted microscope (Carl Zeiss Microscopy Gmb, Germany) with Yokogawa CSU-X1 spinning disk confocal unit using a 63×, 1.4 NA oil immersion or 20×, 0.8 NA objective to an ORCA-Flash4.0 V2 Digital CMOS camera (Hamamatsu, Japan). For live cell imaging, an incubation chamber with temperature and CO2 controllers (World Precision Instruments) was utilized. Fluorophores were excited with s diode laser (488 nm; 30 mW). Images were acquired using Zen Blue software (Carl Zeiss) and processed using Image J.^1
HeLa cells were plated at 40,000 cells/well in an 8-well Lab-Tek chamber slide (ThermoFisher) and allowed to adhere overnight. Cells were transfected with mEGFP-HRas or mEGFP-KRas4b using Lipofectamine 2000 (ThermoFisher) according to the manufacturer's protocol. 50 mM stocks of compounds 1 and 2 were prepared by dissolving the solid compound in DMSO containing 100 mM tris(2-S 3 carboxyethyl)phosphine hydrochloride (TCEP) as a preservative. From these stocks, a solution of 200 μM [1 or 2] (with 400 μM TCEP), or 400 μM TCEP was prepared in OptiMEM media. Before imaging, cells were exchanged into OptiMEM media. The diluted solutions were added to the indicated final concentration within individual wells of the chamber slide and cells imaged while maintaining 37° C., 5% CO2 in the incubation chamber. Images were acquired in 6 different locations across a minimum of 2 independent experiments. […] An unpaired t test was performed to determine the significance of the means before and after treatment.

[2] = test system: ERK1/2 (pY204/pY187); experiment: Detection of ERK1/2 phosphorylation in T24 cells (western blot); assay type: cell-based, human; conditions: T24 cells (oncogenic HRas mutation), 1.25 μmol/10^7 cells, 1 h
Procedure: T24 cells were grown to confluency in 6 cm plates. Stock solutions of compounds were prepared in DMSO as before and diluted to the final indicated concentration in 2 mL of OptiMEM media before adding to cells. Cells were incubated at 37° C. for 1 h and then media removed and 1.5 mL of HBSS added to each plate. Cells were detached using a cell scraper, pelleted by centrifugation at 1,000 rcf for 5 min and the pellet processed using MPER™ Mammalian Protein Extraction Reagent (ThermoFisher) with the addition of Halt Protease Inhibitor Cocktail (ThermoFisher) and 1 mM sodium orthovanadate. Samples were resolved by electrophoresis using 4-20% SDS-polyacrylamide gels (Bio-Rad) under denaturing and reducing conditions. Proteins were then electrotransferred to a PVDF membrane (Bio-Rad). The membrane was blocked with 3% BSA and then subjected to immunoblot analysis using AKT/MAPK Signaling Pathway Antibody Cocktail (ab151279) (Abcam) and secondary goat anti-rabbit IgG-HRP (sc-2030) (Santa Cruz Biotechnology). Chemiluminescent detection was performed by using SuperSignal West Pico PLUS chemiluminescent substrate (ThermoFisher) according to the manufacturer's instructions.
Assays were performed in 3 biological replicates. Western blots were analyzed using ImageJl. The intensity of the protein band in each condition was normalized to the intensity of the corresponding loading control (Rab11). […]

[3] = test system: AKT1 (pS473); experiment: Detection of AKT1 phosphorylation in HeLa cells (western blot); assay type: cell-based; conditions: 1.25 μmol/10^7 cells, 20 min, then EGF 5 min
Procedure: HeLa cells were grown to confluency in 6 cm plates and then serum starved overnight in OptiMEM. Stock solutions of compounds were prepared in DMSO as before and diluted to the final indicated concentration in 2 mL of OptiMEM media before adding to cells. Cells were incubated at 37° C. for 20 min and then stimulated with […] EGF (ThermoFisher) for 5 min. Media was then removed and cells washed once with HBSS. 1.5 mL of HBSS was then added to each plate. Cells were detached using a cell scraper, pelleted by centrifugation at 1,000 rcf for 5 min and the pellet processed using MPER™ Mammalian Protein Extraction Reagent (ThermoFisher) with the addition of Halt Protease Inhibitor Cocktail (ThermoFisher) and 1 mM sodium orthovanadate. Samples were resolved by electrophoresis using 4-20% SDS-polyacrylamide gels (Bio-Rad) under denaturing and reducing conditions. Proteins were then electrotransferred to a PVDF membrane (Bio-Rad). The membrane was blocked with 3% BSA and then subjected to immunoblot analysis using AKT/MAPK Signaling Pathway Antibody Cocktail (ab151279) (Abcam) and secondary goat anti-rabbit IgG-HRP (sc-2030) (Santa Cruz Biotechnology). […]
Assays were performed in 3 biological replicates. Western blots were analyzed using ImageJl. […]

T1 sequence (P01112 1-186 limits assumed): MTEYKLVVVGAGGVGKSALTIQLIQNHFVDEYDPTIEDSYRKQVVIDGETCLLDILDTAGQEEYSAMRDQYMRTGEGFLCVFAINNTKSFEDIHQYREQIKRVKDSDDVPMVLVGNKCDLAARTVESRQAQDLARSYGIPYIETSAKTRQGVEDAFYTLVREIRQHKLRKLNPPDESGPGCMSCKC

CCCCCCCCNC(=O)[C@@H](N)CS [compound 1, H2N-L-Cys-Oct]
change in plasma membrane protein localization, statistical analysis of several hundred cells ([1]; EGFP-HRas transfected HeLa cells, before vs after treatment): significant change in plasma membrane protein localization | EGFP-HRas localization at the plasma membrane (fluorescence) ([1]; HeLa cells, 1.25 μmol/10^7 cells, 20 min): EGFP-HRas localization at the plasma membrane decreased | ERK1/2 phosphorylation [2]: near complete abrogation | AKT1 phosphorylation after EGF stimulation [3]: significant decrease
